# Values joined by “and” are separate entries in the source; they are usually repeats but may differ in a detail not shown here. Equal values may be shown once. Read-outs that look alike come from different tables or passages of the source.
# Experiments:
# [1] = Dynamic vapor sorption (DVS) isotherm; details: for DVS weight loss upon desorption: hysteresis observed
# [2] = Clinical pharmacokinetics (plasma levels, distribution, excretion)
# From the text: The compound is available as anhydrous and crystalline forms; the pentahydrate crystalline form is the most common hydrate form. […] Proposed mechanisms of action involve its […], which allow it to act as a free radical scavenger and/or by covalent binding and inactivating the platinum compound.
# (§1) Thiosulfate is an endogenous compound ubiquitously present in all cells and organs.
# [3] = tested on: cisplatin-induced ototoxicity
# From the text: Reference is made to International Patent Application Publication No. WO 2019/108592, which is a continuation of U.S. patent application Ser. No. 15/826,243, filed on Nov. 29, 2017, both of which are incorporated by reference herein in their entirety.
# [4] = cited from earlier work
# human plasma proteins = tested on: human plasma proteins
# From the text: as §1
# [5] = animals
# From the text: as §1
# [6] = tested on: small cell lung cancer cell cultures; details: cited from earlier work
# [7] = for Cisplatin Concentration: 24° C.
# Protocol: In one aspect, a mixed mode C-18 chromatography column is used in the assay, which has both hydrophobic interaction and ion exchange capabilities. In another aspect, the HPLC run time for the assay is about 2 min, about 5 min, about 7.5 min, about 10 min or about 15 min. In one aspect, the HPLC run time is about 5 min or about 10 min.
# In another aspect, the concentration is analyzed using HPLC with a mixed mode C-18 chromatography column at a column temperature of 35° C., flow rate of 400 μL/min, and UV detection at 220 nm. In one aspect, the HPLC method comprises a step gradient of 100% Buffer A (0.5 mM ammonium formate in 9:1 water:acetonitrile, pH 4) for 3 min; then 90% Buffer A and 10% Buffer B (200 mM ammonium formate in 7:3 water:acetonitrile, pH 4) for 3.5 min; then 100% Buffer A for 4.5 min.
# The method uses a Waters Acquity H-Class HPLC system with an Imtakt Scherzo SW-C18 mixed mode column. The HPLC method conditions are outlined in Table 7. […] This range covers greater than two orders of magnitude at dose-relevant concentrations.
# Each sample was transferred to an HPLC vial and placed in an autosampler chamber held at 24° C. Samples were injected onto the HPLC system approximately every 30 minutes to obtain 4 time-points for each sample. A gradient was run and the retention time and peak area were obtained.
# [8] = preliminary clinical studies, dose equivalent to 5.1 g/m^2 sodium thiosulfate for injection
# [9] = thiosulfate:cisplatin 5:1 (n = 2)
# [10] = thiosulfate:cisplatin 6:1 (n = 2)
# [11] = thiosulfate:cisplatin 10:1 (n = 2)
structure (smiles),measurement,setting,value
"O=S([O-])([O-])=S.[Na+].[Na+] [anhydrous sodium thiosulfate, Sodium thiosulfate anhydrous]",DVS weight change upon equilibration to 0% relative humidity,[1],minimal weight change
same,DVS weight loss upon desorption,[1],51%
O=S(O)(O)=S [thiosulfate],Endogenous serum thiosulfate levels,[2]; adult volunteers,5.5 ± 1.8 µM
"O=S([O-])([O-])=S.[Na+].[Na+] [STS, sodium thiosulfate]",Prevention of ototoxicity,[3]; doses equivalent to 6.4 to 12.8 g/m^2 sodium thiosulfate for injection,prevented ototoxicity
same,Ototoxicity in pediatric patients treated with platinum based chemotherapeutics,[3]; pediatric patients,reduces ototoxicity
same,Hearing protection,[3]; [8],did not show hearing protection
same,Survival,[3]; treatment 6 hours after completion of each CIS infusion,did not affect survival
same,Efficacy of cisplatin based chemotherapeutics when STS was administered,"[3]; two phase III clinical trials, pediatric patients",not affected
same,Excreted in the urine unmodified,[4]; following IV administration,Up to 95%
same,Biological half-life,"[4]; human, in vivo",0.65 hours
same,"Biological half-life, range dependent on dose","[4]; human, in vivo",16.5-182 minutes
same,Binding to human plasma proteins,human plasma proteins,does not bind
same,Distribution to the cochlea,[5],distribute to the cochlea
same,Cytotoxicity of etoposide after immediate or delayed addition of STS,[6]; incubation for 72 hours,no reduction of cytotoxicity
same,"Anti-tumor activity of doxorubicin, carmustine (BCNU), paclitaxel, or methotrexate with STS",[6]; similar studies,no reduction of anti-tumor activity
same,Plasma accumulation,[2]; administered on 2 consecutive days,no plasma accumulation
same,Volume of distribution,[2]; adults,0.23 L/kg
same,Maximum STS plasma levels,"[2]; children and adults, 15-minute infusion, dose equivalent to 12.8 g/m^2 sodium thiosulfate for injection",approximately 13.3 mM
same,Distribution across the blood brain barrier or placenta,"[2]; human, in vivo",absent or limited
same,Absorption after oral administration,[2]; oral,poorly absorbed
same,Maximum plasma levels,[2]; [8],3.9 mM
same,Half-life of cisplatin (time to reach 333/2 μM),[7]; [9],3.3 h
same,"Slope, linear regression of cisplatin conc. vs. time",[7]; [9],−0.80 Cisplatin Area/min
same,Cisplatin Concentration,"[7]; thiosulfate:cisplatin 5:1, 4 min",323.7 µM
same,Cisplatin Concentration,"[7]; thiosulfate:cisplatin 5:1, 37 min",294.2 µM and 294.0 µM
same,Cisplatin Concentration,"[7]; thiosulfate:cisplatin 5:1, 70 min",266.8 µM and 268.0 µM
same,Cisplatin Concentration,"[7]; thiosulfate:cisplatin 5:1, 103 min",243.7 µM and 245.3 µM
same,Half-life of cisplatin (time to reach 333/2 μM),[7]; [10],3.07 h
same,"Slope, linear regression of cisplatin conc. vs. time",[7]; [10],−0.87 Cisplatin Area/min
same,Cisplatin Concentration,"[7]; thiosulfate:cisplatin 6:1, 5 min",325.4 µM and 324.5 µM
same,Cisplatin Concentration,"[7]; thiosulfate:cisplatin 6:1, 38 min",286.4 µM and 293.2 µM
same,Cisplatin Concentration,"[7]; thiosulfate:cisplatin 6:1, 71 min",259.8 µM and 266.2 µM
same,Cisplatin Concentration,"[7]; thiosulfate:cisplatin 6:1, 104 min",235.6 µM and 240.5 µM
same,Half-life of cisplatin (time to reach 333/2 μM),[7]; [11],2.27 h
same,"Slope, linear regression of cisplatin conc. vs. time",[7]; [11],−1.13 Cisplatin Area/min
same,Cisplatin Concentration,"[7]; thiosulfate:cisplatin 10:1, 4 min",319.5 µM
same,Cisplatin Concentration,"[7]; thiosulfate:cisplatin 10:1, 5 min",320.3 µM
same,Cisplatin Concentration,"[7]; thiosulfate:cisplatin 10:1, 37 min",269.4 µM
same,Cisplatin Concentration,"[7]; thiosulfate:cisplatin 10:1, 38 min",278.5 µM
same,Cisplatin Concentration,"[7]; thiosulfate:cisplatin 10:1, 70 min",235.2 µM
same,Cisplatin Concentration,"[7]; thiosulfate:cisplatin 10:1, 71 min",239.6 µM
same,Cisplatin Concentration,"[7]; thiosulfate:cisplatin 10:1, 103 min",205.6 µM
same,Cisplatin Concentration,"[7]; thiosulfate:cisplatin 10:1, 104 min",209.3 µM
same,Serum sodium levels,doses equivalent to 12.8 g/m^2 sodium thiosulfate for injection,"small, transient increase"
same,Renal or other toxicities,pediatric patients treated with a platinum based chemotherapeutic,not exacerbate renal or other toxicities
O.O.O.O.O.O=S([O-])([O-])=S.[Na+].[Na+] [sodium thiosulfate pentahydrate],DVS weight gain upon sorption,[1],81%
same,DVS weight loss upon drying,[1],27%
same,DVS weight loss upon desorption,[1],51%
